One may read the IC50 as the point on the concentration scale where inhibition reaches its midpoint. The bioavailability is dose-corrected exposure relative to a reference, in per cent. Broadly, the half-life is how long it takes for the measured level to halve. The inhibition is how much of the control response was suppressed.

Values joined by “and” are separate entries in the source; they are usually repeats but may differ in a detail not shown here. Identical values can stand only once. Like-named read-outs stand apart in the source and are kept apart here.

Data set [1] relates to Isolated rat hearts. In words: Improved functional recovery in isolated hearts (Langendorff, post-ischemic LVDP). The following applies: 30 min ischemia, 30 min reperfusion, number in brackets = hearts. On the procedure: Isolated rat hearts were cannulated via the ascending aorta and attached to a perfusion apparatus according to the method of Langendorff. The hearts were perfused at a constant pressure of 100 cm of H2O with a modified Krebs-Henseleit buffer (pH 7.4) at 37°C. As a measure of heart function, left ventricular developed pressure (LVDP) was continuously monitored. Following equilibration of the hearts for a period of 30 min., the hearts were subjected to reduced flow i.e. ischemia, by reducing the pressure to 10 cm of H2O for 30 min. Flow was then restored by returning the pressure to its original level (100 cm of H2O) for a further 30 min.

In data set [2] the test system is longitudinal muscle from the guinea pig ileum. In words: Inhibition of stimulated contraction in isolated ileum.
Protocol: Parallel platinum electrodes were used to deliver electrical current at 1 minute intervals at a voltage adequate to induce contraction of 90% of maximal.
A short description of data set [3]: Oral bioavailability and half-life in fasted adult beagles. The following applies: dog, in vivo, fasted adult beagles. On the procedure: Heparinized blood and urine were collected at selected intervals over 24 hours. Each sample was chilled, centrifuged at 4°C and frozen prior to HPLC analysis.
In data set [4] the test system is coronary endothelial cells. Nature of the data set: Inhibition of adenosine utilization in cell culture. It counts as cell-based. The following applies: for inhibition at 5 µM / inhibition at 50 µM: Endothelial cell, read-out: Inhibition of Adenosine Utilization (%); for Inhibition of Adenosine Utilization (%): 1 µM [3H] adenosine, 15 minutes. The method, then: Inhibition of adenosine utilization was determined by measuring the concentration of extracellular adenosine by scintillation counting following separation by thin layer chromatography (TLC).

Data set [5] deals with T1, NBTI-specific adenosine transport site (Homo sapiens, UniProt Q99808).
T1 construct: incubated for 30 minutes with 0.5 mg neuronal membrane protein together with 0.5 nM [^3H]-NBTI; from tissue
T1 sequence (Q99808 1-456): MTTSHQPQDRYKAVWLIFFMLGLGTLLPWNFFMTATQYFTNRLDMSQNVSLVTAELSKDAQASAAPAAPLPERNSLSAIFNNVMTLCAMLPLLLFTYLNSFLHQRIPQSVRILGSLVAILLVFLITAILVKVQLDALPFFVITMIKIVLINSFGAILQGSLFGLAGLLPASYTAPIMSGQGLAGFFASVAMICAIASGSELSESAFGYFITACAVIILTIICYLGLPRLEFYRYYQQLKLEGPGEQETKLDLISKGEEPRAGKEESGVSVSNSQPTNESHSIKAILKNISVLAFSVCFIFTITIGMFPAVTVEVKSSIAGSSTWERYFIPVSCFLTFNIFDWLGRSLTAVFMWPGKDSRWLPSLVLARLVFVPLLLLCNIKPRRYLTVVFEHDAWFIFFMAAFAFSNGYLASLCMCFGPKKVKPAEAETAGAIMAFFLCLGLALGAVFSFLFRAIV
Nature of the data set: [3H]-NBTI binding assay. The note with it: 50% displacement of bound [3H]-NBTI (0.5 nM); neuronal membrane protein, 30 minutes, pH 7.4, room temperature; read-out: ED50 (the source's name). The method, then: Increasing concentrations of the test compounds were incubated for 30 minutes with 0.5 mg neuronal membrane protein together with 0.5 nM [^3H]-NBTI in a Tris buffer (pH 7.4) at room temperature. The assays were quenched and membranes collected by rapid filtration. Filters were then solubilized and radioactivity determined by scintillation counting.

Data set [6] relates to platelet aggregation in human whole blood. Nature of the data set: Inhibition of platelet aggregation in human whole blood. It counts as cell-based. The note with it: 10 minutes at 37°C, 10 µM adenosine added 5 minutes before, ADP (6-25 µM) induced, impedance technique. On the procedure: Whole blood was drawn from healthy donors and collected in 0.1 vol. of sodium citrate to prevent coagulation. Platelet aggregation was measured by the impedance technique using a Whole Blood Aggregometer.

Where [7] appears, read: Cavia porcellus, concentration which inhibited electrically stimulated contraction by 50%, read-out: IC50.

Consider `NC[C@H]1O[C@@H](n2cnc(C(N)=O)c2N)[C@H](O)[C@@H]1O` [Compound No. 21, 5'-Amino-5'-deoxy-AICA-riboside], for which the results for the “Function Recovery % Baseline LVDP (% of hearts)” value in data set [1] (1 µM in perfusion buffer) and in data set [1] (5 µM in perfusion buffer) were 77.0±4.4 (10) % and 81.0±3.2 (8) %, respectively. Moreover, the IC50 in data set [2] (setting [7]) was 800 µM. In data set [3] (po, 10 mg/kg IV bolus and 20 mg/kg solution via stomach tube, read-out: Absolute Oral Bioavailability %), the bioavailability is 71%. The compound also had a half-life in data set [3] of 1.3 h.

As to `Cc1ccc(CNC(=O)c2ncn([C@@H]3O[C@H](CO)[C@@H](O)[C@H]3O)c2N)cc1` [Compound No. 30, 5-amino-1-β-D-ribofuranosylimidazole-4-N-[(4-methylphenyl)methyl]carboxamide], the IC50 in data set [2] (Cavia porcellus) is 20 µM. Also, in data set [4], the inhibition at 5 µM is 21 ± 1% and the inhibition at 50 µM came out at 49 ± 4%. Also, the EC50 in data set [5] was determined as 225 µM.

As for `[N-]=[N+]=NC[C@H]1O[C@@H](n2cnc(C(=O)NCc3ccc([N+](=O)[O-])cc3)c2N)[C@H](O)[C@@H]1O` [Compound No. 71, 5-Amino-1-(5-azido-5-deoxy-B-D-ribofuranosyl)imidazole-4-N-[(4-nitrophenyl)methyl]carboxamide], the “Inhibition of Adenosine Utilization (%)” value is listed as 10 ± 3% in data set [4] (5 µM test compound) and 31 ± 11% in data set [4] (50 µM test compound). The compound further registered an IC50 in data set [6] of 40 µM.

In turn, `Nc1c(C(=O)NCc2ccccc2Cl)ncn1[C@@H]1O[C@H](CO)[C@@H](O)[C@H]1O` [Compound No. 24, 5-Amino-1-β-D-ribofuranosylimidazole-4-N-[(2-chlorophenyl)methyl]carboxamide] gave an IC50 in data set [2] (Cavia porcellus) of 400 µM. The EC50 in data set [5] worked out at 300 µM.

In turn, `NC[C@H]1O[C@@H](n2cnc(C(=O)NCc3ccc([N+](=O)[O-])cc3)c2N)[C@H](O)[C@@H]1O` [Compound No. 72] returned an IC50 in data set [6] of 300 µM.

For `C[C@H]1O[C@@H](n2cnc(C(=O)NCc3ccc(Cl)cc3)c2N)[C@H](O)[C@@H]1O` [Compound No. 61, 5-Amino-1-(5-deoxy-β-D-ribofuranosyl) imidazole-4N-[(4-chlorophenyl)methyl]carboxamide], in data set [4], the inhibition at 5 µM came to 37 ± 28% and the inhibition at 50 µM came to 72 ± 5%. Besides, the EC50 in data set [5] worked out at 32 µM. This compound also showed a half-inhibitory concentration (IC50) in data set [6] (Homo sapiens, Platelet) of 171 µM.

For `Nc1c(C(=O)NCc2ccc(Cl)cc2Cl)ncn1[C@@H]1O[C@H](CO)[C@@H](O)[C@H]1O` [Compound No. 25, 5-amino-1-β-D-ribofuranosylimidazole-4-N-[(2,4-dichlorophenyl)methyl]carboxamide], the “Function Recovery % Baseline LVDP (% of hearts)” value in data set [1] (5 µM in perfusion buffer, listed as 25 (1-360)) was 86.8±2.3 (6) % and 72.4±1.6 (6) %. In data set [2] (Cavia porcellus), this compound had an IC50 of 20 µM. In data set [4], the inhibition at 5 µM came out at 21 ± 1% and the inhibition at 50 µM turned out to be 56 ± 2%. Also, the EC50 in data set [5] was 72 µM.

On to `CCCCO[C@@H]1[C@H](O)[C@@H](CO)O[C@H]1n1cnc(C(N)=O)c1N` [Compound No. 32, 5-amino-1-(2-O-n-butyl-β-D-ribofuranosyl) imidazole-4-carboxamide], for which the IC50 was 100 µM in data set [2] (setting [7]) and 350 µM in data set [6] (Homo sapiens, Platelet).

`COc1ccc(CNC(=O)c2ncn([C@@H]3O[C@H](CO)[C@@H](O)[C@H]3O)c2N)cc1` [Compound No. 39, 5-Amino-1-β-D-ribofuranosyl-imidazole-4-N-(p-methoxybenzyl)carboxamide] displayed an IC50 in data set [2] (Cavia porcellus) of 500 µM. Besides, in data set [4], the inhibition at 5 µM worked out at 7 ± 4% and the inhibition at 50 µM was found to be 29 ± 1%. The EC50 in data set [5] is 600 µM.

`Nc1c(C(=O)NCCc2ccc([N+](=O)[O-])cc2)ncn1[C@@H]1O[C@H](CO)[C@@H](O)[C@H]1O` [Compound No. 59]: the “Function Recovery % Baseline LVDP (% of hearts)” value in data set [1] (1 µM in perfusion buffer) is 75.8±2.2 (7) %. In data set [5], the EC50 amounted to 2 µM. Besides, half-maximal inhibition in data set [6] (Homo sapiens, Platelet) (IC50) was put at 70 µM.

For `Nc1c(C(=O)SCc2ccc([N+](=O)[O-])cc2)ncn1[C@@H]1O[C@H](CO)[C@@H](O)[C@H]1O`, the “Function Recovery % Baseline LVDP (% of hearts)” value in data set [1] (1 µM in perfusion buffer) was 74.0±2.8 (6) %. In addition, in data set [2] (Cavia porcellus), half-maximal inhibition (IC50) was put at 10 µM. In addition, in data set [4], the inhibition at 5 µM was 17 ± 3% and the inhibition at 50 µM amounted to 19 ± 2%. Moreover, the EC50 in data set [5] turned out to be 0.5 µM.

As to `Nc1c(C(=O)NCc2ccc(Br)cc2)ncn1[C@@H]1O[C@H](CO)[C@@H](O)[C@H]1O` [Compound No. 56, 5-Amino-1-β-D-ribofuranosyl-imidazole-4-N-[(4-bromophenyl)methyl]carboxamide], in data set [4], the inhibition at 5 µM turned out to be 55 ± 7% and the inhibition at 50 µM is 65 ± 9%. Besides, the EC50 in data set [5] came to 32 µM. In data set [6] (Homo sapiens, Platelet), the IC50 amounted to 75 µM.

With `Nc1c(C(=O)NCc2cccc([N+](=O)[O-])c2)ncn1[C@@H]1O[C@H](CO)[C@@H](O)[C@H]1O` [Compound No. 28, 5-amino-1-β-D-ribofuranosylimidazole-4-N-[(3-nitrophenyl)methyl]carboxamide], in data set [4], the inhibition at 5 µM is 17 ± 3% and the inhibition at 50 µM stood at 47 ± 2%. Besides, in data set [5], the EC50 was 15 µM. Half-maximal inhibition in data set [6] (Homo sapiens, Platelet) (IC50) required 180 µM.

Regarding `NC(=O)c1nc(S)n([C@@H]2O[C@H](CO)[C@@H](O)[C@H]2O)c1N` [Compound No. 27, 5-amino-2-thio-1-β-D-ribofuranosyl imidazole-4-carboxamide], in data set [1] (5 µM in perfusion buffer), the “Function Recovery % Baseline LVDP (% of hearts)” value is reported as 74.6±3.7 (7) %. For the same compound, the IC50 in data set [2] (Cavia porcellus) was 500 µM; in data set [6] (Homo sapiens, Platelet), 950 µM. Also, the EC50 in data set [5] was 344 µM.

For the compound `Nc1c(C(=O)NCc2ccc(Cl)cc2)ncn1[C@@H]1O[C@H](CO)[C@@H](O)[C@H]1O` [Compound No. 29, 5-amino-1-β-D-ribofuranosylimidazole-4-N-[(4-Chlorophenyl)methyl]carboxamide], in data set [1] (1 µM in perfusion buffer), the “Function Recovery % Baseline LVDP (% of hearts)” value is on record as 76.7±2.9 (7) %. Further, the IC50 in data set [2] (Cavia porcellus) came out at 60 µM. In data set [4], the inhibition at 5 µM worked out at 41 ± 11% and the inhibition at 50 µM was 67 ± 8%. Moreover, in data set [5], the EC50 was determined as 100 µM. Moreover, the IC50 in data set [6] (Homo sapiens, Platelet) was 90 µM.

For the compound `NC(=O)c1nc(Sc2ccccc2)n([C@@H]2O[C@H](CO)[C@@H](O)[C@H]2O)c1N` [Compound No. 43, 5-Amino-2-thiophenyl-1-β-D-ribofuranosylmidazole-4-carboxamide], the IC50 in data set [2] (Cavia porcellus) is 200 µM; in data set [6] (Homo sapiens, Platelet), 620 µM. The EC50 in data set [5] is 71 µM.

`NC(=O)c1ncn([C@@H]2O[C@H](CCl)[C@@H](O)[C@H]2O)c1N` [Compound No. 26, 5-amino-1-(5-chloro-5-deoxy-β-D-ribofuranosyl) imidazole-4-carboxamide]: the “Function Recovery % Baseline LVDP (% of hearts)” value in data set [1] (5 µM in perfusion buffer) was 70.7±4.1 (8) %. Also, the IC50 in data set [2] (concentration which inhibited electrically stimulated contraction by 50%, read-out: IC50) was found to be 200 µM.

Turning to `Nc1c(C(=O)NCc2ccc([N+](=O)[O-])cc2)ncn1[C@@H]1O[C@H](CO)[C@@H](O)[C@H]1O` [Compound No. 23, 5-Amino-1-β-D-ribofuranosyl-imidazole-4-N-[(4-nitrophenyl)methyl]carboxamide], in data set [1] (1 µM in perfusion buffer), the “Function Recovery % Baseline LVDP (% of hearts)” value is reported as 79.0±2.3 (6) %. In data set [2] (Cavia porcellus), this compound registered an IC50 of 3 µM. In data set [4], the inhibition at 5 µM was 27 ± 4% and the inhibition at 50 µM came out at 63 ± 2%. For the same compound, the EC50 in data set [5] came to 3 µM. For the same compound, the IC50 in data set [6] (Homo sapiens, Platelet) is 38 µM.

As to `Nc1c(C(=O)NC2CC3CCC2C3)ncn1[C@@H]1O[C@H](CO)[C@@H](O)[C@H]1O` (stereo partly drawn) [Compound No. 45, 5-Amino-1-β-D-ribofuranosylimidazole-4-N-(2-endo-norbornyl)carboxamide], the IC50 in data set [2] (Cavia porcellus) turned out to be 100 µM. Further, the EC50 in data set [5] stood at 90 µM.

The values above are taken from patent publication EP0495091B1 (Metabasis Therapeutics Inc., priority 1990, dated 1992).
